Assay results taken from publication PMC8139662 (Journal of Virology, 2021).

System: polarized human airway epithelial cultures (HAEC)

In the case of `COc1cccc2[nH]c(C(=O)N[C@@H](CC(C)C)C(=O)N[C@@H](C[C@@H]3CCNC3=O)C(=O)CO)cc12` [PF-00835231], the “effect on transepithelial resistance (TEER) over time” value is reported as “we did not observe this trend”.
